PMC8352664 (The Journal of Biological Chemistry, 2021)

Tested on: CD8^+ T cells in PBMCs from convalescent COVID-19 patients
Assay type: cell-based, human

YLQPSTFLL [S^269–277R273S]
HLA-A2^S269–277+CD8+ T cell cross-reactivity between WT S^269–277 and variant peptide: no HLA-A2^S269–277+CD8^+ T cell cross-reactivity
